Measurements taken from patent publication US10344019B2 (priority 2010, dated 2019).
Read-outs that look alike come from different tables or passages of the source.

Legend:
Assay in all cases: microbe, parasite or virus in culture
Type in all cases: cell-based
[1] = system: HCV 1a RLuc cells (dicistronic genotype 1a H77 replicon, RLuc reporter); conditions: genotype 1a H77 replicon, read-out: 1a
Protocol: (§1) Evaluation of cell-based anti-HCV activity: Antiviral potency (EC50) was determined using a Renilla luciferase (RLuc)-based HCV replicon reporter assay. To perform the assay for genotype 1 and 2a JFH-1, HCV 1b RLuc cells (harboring a dicistronic genotype 1b Con1 replicon that encodes a RLuc reporter), or HCV 1a RLuc cells (harboring a dicistronic genotype 1a H77 replicon that encodes a RLuc reporter), or HCV 2a JFH-1 Rluc cells (harboring a dicistronic genotype 2a JFH-1 replicon that encodes a RLuc reporter) were dispensed into 384-well plates. To perform the assay for genotype 2a (with M31 present) or 2b, HCV 2a Rluc or 2b Rluc cells (both with M31 present) harboring a dicistronic NS5A chimeric genotype 2a JFH-1 replicon that encodes a RLuc reporter and either genotype 2a J6 strain NS5A gene or genotype 2b MD2b-1 NS5A gene (based on Los Alamos HCV database isolates, both with M31 present) respectively, were dispensed into 384-well plates. To perform the assay for genotype 3 and 4, HCV 3a RLuc or 4a Rluc cells harboring a dicistronic NS5A chimeric genotype 1b Con1 replicon that encodes a RLuc reporter and either a consensus genotype 3a NS5A gene or genotype 4a NS5A gene (based on Los Alamos HCV database isolates) respectively, were dispensed into 384-well plates. Compounds were re-suspended in DMSO at a concentration of 10 mM and serially diluted in DMSO either manually or using an automated pipeting instrument. Serially diluted compounds were mixed with cell culture media and added to the seeded cells. […] 72 hours later, cells were lysed and Renilla luciferase activity quantified as recommended by the manufacturer (Promega-Madison, Wis.). Non-linear regression was performed to calculate EC50 values.

[2] = system: HCV 1b RLuc cells (dicistronic genotype 1b Con1 replicon, RLuc reporter)
Protocol: as §1

[3] = system: HCV 2a JFH-1 Rluc cells (dicistronic genotype 2a JFH-1 replicon, RLuc reporter); conditions: genotype 2a JFH-1 replicon, read-out: 2a JFH
Protocol: as §1

[4] = system: HCV 3a RLuc cells (NS5A chimeric genotype 1b Con1 replicon with consensus genotype 3a NS5A gene)
Protocol: as §1

[5] = Hepatitis C virus, RLuc reporter
[6] = Hepatitis C virus, read-out: 1b (nM)
[7] = Hepatitis C virus, read-out: 3a, genotype 3a NS5A chimeric 1b Con1 replicon
[8] = Hepatitis C virus, 72 h, Table 1, 72 hours
[9] = Hepatitis C virus, 72 h, read-out: 1b (nM)
[10] = Hepatitis C virus, 72 h, Table 2, 72 hours
[11] = Hepatitis C virus, read-out: 3a, Table 2, genotype 3a NS5A chimeric replicon

Row | Structure (SMILES) | EC50 [1, 5] [nM] | EC50 [2, 6] [nM] | EC50 [3, 5] [nM] | EC50 [4, 7] [nM] | also measured
1 | COC(=O)N[C@H](C(=O)N1CCC[C@H]1c1nc(-c2ccc3cc(-c4ccc(-c5c[nH]c([C@@H]6CCCN6C(=O)[C@@H](c6ccccc6)N(C6CC6)C6CC6)n5)cc4)ccc3c2)c[nH]1)C(C)C [Example 179] | 1 to 44 | 0.041 | 1 to 44 | > 5 | –
2 | COC(=O)N[C@H](C(=O)N1CCC[C@H]1c1ncc(-c2ccc3cc(C#Cc4cnc([C@@H]5CCCN5C(=O)[C@H](NC(=O)OC)c5ccccc5)[nH]4)ccc3c2)[nH]1)C(C)C [Example 115] | 0.001 to 0.999 | 0.019 | 0.001 to 0.999 | 0.001 to 0.99 | –
3 | COC(=O)N[C@H](C(=O)N1CCC[C@H]1c1nc2ccc(-c3ccc(-c4ccc5c(c4)CCc4nc([C@@H]6CCCN6C(=O)[C@H](NC(=O)OC)c6ccccc6)[nH]c4-5)cc3)cc2[nH]1)C(C)C [Example 166] | 1 to 44 | 0.018 | 0.001 to 0.999 | 0.001 to 0.99 | –
4 | COC(=O)N[C@H](C(=O)N1CCC[C@H]1c1ncc(-c2ccc3c4c(ccc3c2)-c2ccc(-c3cnc([C@@H]5CCCN5C(=O)C(c5ccccc5)N(C)C)[nH]3)cc2CO4)[nH]1)C(C)C (stereo partly drawn) [Example 3] | – | – | – | – | EC50 [1, 8]: 0.001 to 0.999 nM; EC50 [2, 9]: 0.011 nM; EC50 [3, 8]: 0.001 to 0.999 nM; EC50 ([4]; Hepatitis C virus, read-out: 3a, Table 1, genotype 3a NS5A chimeric replicon): 0.001 to 0.99 nM
5 | COC(=O)N[C@H](C(=O)N1CCC[C@H]1c1ncc(-c2ccc3c(c2)CCc2cc(-c4ccc5nc([C@@H]6CCCN6C(=O)[C@H](NC(=O)OC)c6ccccc6)[nH]c5c4)ccc2-3)[nH]1)C(C)C [Example 189] | 0.001 to 0.999 | 0.006 | 0.001 to 0.999 | 0.001 to 0.99 | –
6 | COC(=O)N[C@H](C(=O)N1CC2(C[C@H]1c1ncc(-c3ccc4c(c3)C(F)(F)c3cc(-c5ccc6nc(C7[C@H]8CC[C@H](C8)N7C(=O)[C@@H](NC(=O)OC)C(C)C)[nH]c6c5)ccc3-4)[nH]1)OCCO2)C(C)C (stereo partly drawn) [Example 38] | – | – | – | – | EC50 [1, 10]: 0.001 to 0.999 nM; EC50 [2, 9]: 0.003 nM; EC50 [3, 10]: 1 to 44 nM; EC50 [4, 11]: > 5 nM
7 | COC(=O)N[C@H](C(=O)N1CCC[C@H]1c1ncc(-c2ccc3cc(-c4ccc(-c5cnc([C@@H]6C[C@@H](C)CN6C(=O)[C@H](NC(=O)OC)c6ccccc6)[nH]5)cc4)ccc3c2)[nH]1)C1CCOCC1 [Example 188] | 0.001 to 0.999 | 0.012 | 0.001 to 0.999 | 0.001 to 0.99 | –
8 | COC(=O)N[C@H](C(=O)N1CC2(C[C@H]1c1ncc(-c3ccc(-c4ccc5cc(-c6cnc([C@@H]7CCCN7C(=O)[C@H](NC(=O)OC)c7ccccc7)[nH]6)ccc5c4)cc3)[nH]1)OCCO2)C(C)C [Example 35] | – | – | – | – | EC50 [1, 10]: 0.001 to 0.999 nM; EC50 [2, 9]: 0.008 nM; EC50 [3, 10]: 0.001 to 0.999 nM; EC50 [4, 11]: 0.001 to 0.99 nM
9 | COC(=O)N[C@H](C(=O)N1C[C@H](C#N)C[C@H]1c1ncc(-c2ccc3cc(-c4ccc(-c5cnc([C@@H]6CCCN6C(=O)[C@@H](c6ccccc6)N(C)C)[nH]5)cc4)ccc3c2)[nH]1)C(C)C [Example 144] | 0.001 to 0.999 | 0.013 | 0.001 to 0.999 | 0.001 to 0.99 | –
10 | COC(=O)N[C@H](C(=O)N1CCC[C@H]1c1nc2ccc3cc(-c4ccc5cc(-c6cnc([C@@H]7CCCN7C(=O)[C@H](NC(=O)OC)c7ccccc7)[nH]6)ccc5c4)ccc3c2[nH]1)C1CCOCC1 [Example 175] | 0.001 to 0.999 | 0.011 | 0.001 to 0.999 | 0.001 to 0.99 | –
11 | COC(=O)N[C@H](C(=O)N1CCC[C@H]1c1nc2c([nH]1)COc1cc(-c3ccc4cc(-c5c[nH]c([C@@H]6CCCN6C(=O)[C@H](NC(=O)OC)c6ccccc6)n5)ccc4c3)ccc1-2)C(C)C [Example 176] | 0.001 to 0.999 | 0.006 | 0.001 to 0.999 | 0.001 to 0.99 | –
12 | COC(=O)N[C@H](C(=O)N1C[C@@H](C#N)C[C@H]1c1ncc(-c2ccc3cc(-c4ccc(-c5cnc([C@@H]6CCCN6C(=O)[C@@H](c6ccccc6)N(C)C)[nH]5)cc4)ccc3c2)[nH]1)C(C)C [Example 137] | 0.001 to 0.999 | 0.012 | 0.001 to 0.999 | 0.001 to 0.99 | –
13 | COC(=O)NC(C(=O)N1CCC[C@H]1c1ncc(-c2ccc3c(c2)C(F)(F)c2cc(-c4ccc(-c5cnc([C@@H]6CCCN6C(=O)[C@H](NC(=O)OC)c6ccccc6)[nH]5)cc4)ccc2-3)[nH]1)C(C)C (stereo partly drawn) [Example 194] | 1 to 44 | 0.01 | 1 to 44 | 1 to 4.99 | –
14 | COC(=O)N[C@H](C(=O)N1CCC[C@H]1c1nc(-c2ccc3cc(-c4ccc(-c5cnc([C@@H]6CCCN6C(=O)[C@@H](c6ccccc6)N(C)C)[nH]5)cc4)ccc3c2)c[nH]1)C(C)C [Example 31] | – | – | – | – | EC50 [1, 10]: 0.001 to 0.999 nM; EC50 [2, 9]: 0.014 nM; EC50 [3, 10]: 0.001 to 0.999 nM; EC50 [4, 11]: 0.001 to 0.99 nM
15 | COC(=O)N[C@H](C(=O)N1CCC[C@H]1c1ncc(-c2ccc3cc(-c4ccc(-c5cnc([C@@H]6CCCN6C(=O)[C@H](NC(=O)OC)c6ccccc6F)[nH]5)cc4)ccc3c2)[nH]1)C(C)C [Example 148] | 0.001 to 0.999 | – | 0.001 to 0.999 | – | EC50 ([2]; read-out: 1b): 0.02 nM; EC50 ([4]; read-out: 3a, genotype 3a NS5A chimeric 1b Con1 replicon): 1 to 4.99 nM
16 | COC(=O)NC(C(=O)N1CCC[C@H]1c1ncc(-c2ccc(-c3ccc4cc(-c5cnc([C@@H]6CCCN6C(=O)[C@@H](NC(=O)OC)C(C)C)[nH]5)ccc4c3)cc2)[nH]1)c1cccc(C(F)(F)F)c1 (stereo partly drawn) [Example 146] | 1 to 44 | 0.048 | 1 to 44 | > 5 | –
17 | COC(=O)N[C@H](C(=O)N1CCCC1c1ncc(-c2ccc3cc(-c4ccc(-c5cnc([C@@H]6CCCN6C(=O)[C@H](NC(=O)OC)c6ccccc6)[nH]5)cc4)ccc3c2)[nH]1)C1CCOCC1 (stereo partly drawn) [Example 153] | 0.001 to 0.999 | 0.012 | 0.001 to 0.999 | 0.001 to 0.99 | –
18 | COC(=O)N[C@H](C(=O)N1CCC[C@H]1c1ncc(-c2ccc3cc(-c4ccc(-c5cnc([C@@H]6CCCN6C(=O)[C@H](NC(=O)CC6CCOCC6)c6ccccc6)[nH]5)cc4)ccc3c2)[nH]1)C(C)C [Example 212] | 0.001 to 0.999 | 0.018 | 0.001 to 0.999 | 0.001 to 0.99 | –
19 | COC(=O)N[C@@H](C)C(=O)N1CCC[C@H]1c1ncc(-c2ccc3cc(-c4ccc(-c5cnc([C@@H]6CCCN6C(=O)[C@H](NC(=O)OC)c6ccccc6)[nH]5)cc4)ccc3c2)[nH]1 [Example 164] | 0.001 to 0.999 | 0.01 | 0.001 to 0.999 | 0.001 to 0.99 | –
20 | COC(=O)N[C@H](C(=O)N1CCC[C@H]1c1nc2c([nH]1)-c1ccc(-c3ccc4cc(-c5cnc([C@@H]6CCCN6C(=O)[C@H](NC(=O)OC)c6ccccc6)[nH]5)ccc4c3)cc1CC2)C1CCOCC1 [Example 174] | – | – | – | 0.001 to 0.99 | EC50 ([1]; RLuc reporter): 0.001 to 0.999 nM; EC50 ([2]; read-out: 1b): 0.015 nM; EC50 ([3]; RLuc reporter): 0.001 to 0.999 nM
21 | COC(=O)N[C@H](C(=O)N1C[C@@H](C#N)C[C@H]1c1nc2ccc(-c3ccc(-c4ccc5c(c4)CCc4nc([C@@H]6CCCN6C(=O)[C@H](NC(=O)OC)c6ccccc6)[nH]c4-5)cc3)cc2[nH]1)C1CCOCC1 [Example 167] | 0.001 to 0.999 | 0.048 | 0.001 to 0.999 | 0.001 to 0.99 | –
22 | COC(=O)N[C@H](C(=O)N1CCC[C@H]1c1ncc(-c2ccc3cc(-c4ccc(-c5cnc([C@@H]6CC(=O)CN6C(=O)[C@@H](c6ccccc6)N(C)C)[nH]5)cc4)ccc3c2)[nH]1)C(C)C [Example 34] | – | – | – | – | EC50 [1, 10]: 0.001 to 0.999 nM; EC50 [2, 9]: 0.018 nM; EC50 [3, 10]: 0.001 to 0.999 nM; EC50 [4, 11]: 0.001 to 0.99 nM
23 | COC(=O)N[C@H](C(=O)N1CCC[C@H]1c1ncc(-c2ccc3cc(-c4ccc(-c5cnc([C@@H]6C[C@H](C)CN6C(=O)[C@H](NC(=O)OC)c6ccccc6)[nH]5)cc4)ccc3c2)[nH]1)C(C)C [Example 32] | – | – | – | – | EC50 [1, 10]: 0.001 to 0.999 nM; EC50 [2, 9]: 0.02 nM; EC50 [3, 10]: 0.001 to 0.999 nM; EC50 [4, 11]: > 5 nM
24 | COC(=O)N[C@H](C(=O)N1CCC[C@H]1c1ncc(-c2ccc(-c3ccc4cc(-c5cnc([C@@H]6CCCN6C(=O)[C@H](NC(=O)OC)c6ccccc6)[nH]5)ccc4c3)cc2)[nH]1)C(C)C [Example 27] | – | – | – | – | EC50 ([1]; Table 2, 72 hours): 0.001 to 0.999 nM; EC50 ([2]; read-out: 1b): 0.011 nM; EC50 ([3]; Table 2, 72 hours): 0.001 to 0.999 nM; EC50 ([4]; read-out: 3a, Table 2, genotype 3a NS5A chimeric replicon): 0.001 to 0.99 nM
